Laboratory results published in patent publication US8088819B2, “Derivatives of substituted 3-phenyl-1-(phenylthienyl)propan-1-ones and of 3-phenyl-1-(phenylfuranyl) propan-1-ones, preparation and use” (priority 2006, dated 2012).

Tests used:
[1] = tested on: target genes of the PPARs; experiment: Expression of PPARδ target genes in skeletal muscle of the C57Bl6 mouse (compound 2), quantitative RT-PCR; format: in vivo; conditions: C57Bl6 mice; 50 mpk; 14 days
From the text: The PPARδ agonistic properties of the molecules according to the invention previously measured in vitro should be reflected at the level of the skeletal muscle in an overexpression of the target genes directly under the control of the PPARδ receptor: the genes that were investigated in this experiment are the genes coding for UCP2 (uncoupling protein 2, mitochondrial transporter involved in thermoregulation) and PDK4 (pyruvate dehydrogenase kinase isoform 4, enzyme of carbohydrate metabolism).
Female C57Bl6 mice were kept under a cycle of light and darkness of 12/12 hours at a constant temperature of 20±3° C. After acclimation for one week, the mice were weighed and put into groups of 6 animals selected so that the distribution of their body weight, of their plasma lipid levels and of total cholesterol determined for the first time before the experiment, is uniform. […]
1 μg of total RNA (quantified on the basis of the spectrophotometer reading) was then reverse-transcribed to complementary DNA by reaction for 1 hour at 37° C. in a total volume of 30 μl containing buffer 1× (Invitrogen), 1.5 mM of DTT, 0.18 mM of dNTPs (Promega), 200 ng of pdN6 (Amersham), 30 U of RNase inhibitor (Promega) and 1 μl of MMLV-RT (Invitrogen). […]
The amount of fluorescence emitted is directly proportional to the amount of complementary DNA present at the start of the reaction and amplified during PCR. […]

[2] = tested on: target genes of the PPARs; experiment: Expression of target genes of the PPARs in liver and skeletal muscle of the E2/E2 mouse, quantitative RT-PCR; format: in vivo; conditions: 50 mpk, 13 days
From the text: The PPARα agonistic properties of the molecules according to the invention previously measured in vitro must be reflected at the hepatic level in a modulation of the expression of the target genes directly under the control of the PPARα receptor. The genes that were investigated in this experiment are the genes coding for PDK4 (pyruvate dehydrogenase kinase isoform 4, enzyme of carbohydrate metabolism), for AcoX1 (the AcoX1 present in the mouse corresponds to the gene of ACO in humans (acyl co-enzyme A oxidase, a key enzyme in the mechanism of the β-oxidation of fatty acids)) and for Apo CIII (an apolipoprotein involved in lipid metabolism).
The PPARδ agonistic properties of the molecules according to the invention previously measured in vitro should also be reflected, at the level of the skeletal muscle, in overexpression of the target genes directly under the control of the PPARδ receptor. The genes that were investigated in this experiment are the genes coding for PDK4 (pyruvate dehydrogenase kinase isoform 4, enzyme of carbohydrate metabolism) and UCP2 (uncoupling protein 2, mitochondrial transporter involved in thermoregulation).
Apo E2/E2 transgenic mice were kept under a cycle of light and darkness of 12/12 hours at a constant temperature of 20±3° C. After acclimation for one week, the mice were weighed and put into groups of 6 animals selected so that the distribution of their body weights and of their plasma lipid levels determined for the first time before the experiment are uniform. The test compounds were suspended in carboxymethylcellulose (Sigma C4888) and administered by intragastric force feeding, at a rate of once per day for 13 days at the chosen dose. The animals had free access to water and to food (standard diet). At the end of the experiment, the animals were anesthetized after fasting for 4 hours, a blood sample was taken using anticoagulant (EDTA), then the mice were weighed and euthanased. The plasma was separated by centrifugation at 3000 rev/min for 20 minutes, and the samples were stored at +4° C.
Samples of liver and of skeletal muscle tissue were taken and frozen immediately in liquid nitrogen and then stored at −80° C. for later analyses.
The total RNA was extracted from fragments of liver using the NucleoSpin® 96 RNA kit (Macherey Nagel, Hoerdt, France) following the manufacturer's instructions. […]
1 μg of total RNA (quantified by spectrophotometry) was then reverse-transcribed to complementary DNA by reaction for 1 hour at 37° C. in a total volume of 30 μl containing buffer 1× (Invitrogen), 1.5 mM of DTT, 0.18 mM of dNTPs (Promega), 200 ng of pdN6 (Amersham), 30 U of RNase inhibitor (Promega) and 1 μl of MMLV-RT (Invitrogen).
The quantitative PCR experiments were carried out using the MyiQ Single-Color Real-Time PCR Detection System (Biorad, Marnes-la-Coquette, France) and were performed using the iQ SYBR Green Supermix kit following the supplier's recommendations, in 96-well plates, on 5 μl of diluted reverse transcription reaction mixture with a hybridization temperature of 60° C. […]
In both cases (hepatic tissue and skeletal muscle tissue), the amount of fluorescence emitted is directly proportional to the amount of complementary DNA present at the start of the reaction and amplified during PCR. […] The relative expression levels of each target are thus determined using the efficacy curves obtained with the points in the range. […]

CC(C)(Oc1ccc(CCC(=O)c2ccc(-c3ccc(C(F)(F)F)cc3)s2)c(Cl)c1Cl)C(=O)O [Compound 2, 2-(2,3-dichloro-4-(3-oxo-3-(5-(4-(trifluoromethyl)phenyl)thien-2-yl)propyl)phenoxy)-2-methylpropanoic acid]
significant increase: expression of the gene coding for PDK4 in skeletal muscle [1] | expression of the gene coding for UCP2 in skeletal muscle [1] | hepatic expression of the gene coding for AcoX1 ([2]; liver) | hepatic expression of the gene coding for PDK4 ([2]; liver) | expression of the gene coding for PDK4 in the skeletal muscle ([2]; skeletal muscle) | expression of the gene coding for UCP2 in the skeletal muscle ([2]; skeletal muscle)
decrease: hepatic expression of the gene coding for ApoCIII ([2]; liver)
